Test results from ChEMBL document CHEMBL1201862, “PubChem BioAssay data set” (2004).
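96-well plates; 48 h exposure; 5 concentrations. Endpoints by linear interpolation between flanking doses. Not reached: highest tested concentration assigned. The concentration for 50% growth inhibition is given as GI50.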 Calls of active or inactive are those of the source. Cut-off read from the data, not from the text of the source: active = GI50 up to about 1.1 µM and inactive = higher.

What was measured:
Test in all cases: NCI anticancer screen, dose series, 48 h
HCC 2998 = tested on: HCC 2998
SF-539 = tested on: SF-539
K562 = tested on: K562
SK-MEL-5 = tested on: SK-MEL-5
PC-3 = tested on: PC-3
MDA-N = tested on: MDA-N
UACC-257 = tested on: UACC-257
SW-620 = tested on: SW-620
MDA-MB-231 = tested on: MDA-MB-231
DU-145 = tested on: DU-145
MCF7 = tested on: MCF7
COLO 205 = tested on: COLO 205
U-251 = tested on: U-251
SNB-19 = tested on: SNB-19
SNB-75 = tested on: SNB-75
NCI-H522 = tested on: NCI-H522
NCI-H23 = tested on: NCI-H23
SF-295 = tested on: SF-295
RXF 393 = tested on: RXF 393
M14 = tested on: M14
HOP-92 = tested on: HOP-92
ACHN = tested on: ACHN
786-0 = tested on: 786-0
OVCAR-4 = tested on: OVCAR-4
MDA-MB-435 = tested on: MDA-MB-435
HCT-15 = tested on: HCT-15
OVCAR-3 = tested on: OVCAR-3
HCT-116 = tested on: HCT-116
SK-OV-3 = tested on: SK-OV-3
HOP-62 = tested on: HOP-62
NCI-H460 = tested on: NCI-H460
TK-10 = tested on: TK-10
Hs-578T = tested on: Hs-578T
UO-31 = tested on: UO-31
BT-549 = tested on: BT-549
SK-MEL-28 = tested on: SK-MEL-28
RPMI-8226 = tested on: RPMI-8226
IGROV-1 = tested on: IGROV-1
SN12C = tested on: SN12C
SK-MEL-2 = tested on: SK-MEL-2
MOLT-4 = tested on: MOLT-4
KM12 = tested on: KM12
CAKI-1 = tested on: CAKI-1
Malme-3M = tested on: Malme-3M
HL-60 = tested on: HL-60
T47D = tested on: T47D
NCI/ADR-RES = tested on: NCI/ADR-RES
NCI-H226 = tested on: NCI-H226
LOX IMVI = tested on: LOX IMVI
UACC-62 = tested on: UACC-62
SF-268 = tested on: SF-268
A549 = tested on: A549
CCRF-CEM = tested on: CCRF-CEM
HT-29 = tested on: HT-29
EKVX = tested on: EKVX
OVCAR-8 = tested on: OVCAR-8
OVCAR-5 = tested on: OVCAR-5

CC(C)C1/C(=N/O)CC(c2ccccc2)N(N=O)C1c1ccccc1 (stereo not drawn)
GI50 (HCC 2998): 37.2 µM (inactive) | GI50 (SF-539): 57.8 µM (inactive) | GI50 (K562): 35.5 µM (inactive) | GI50 (SK-MEL-5): 30.2 µM (inactive) | GI50 (PC-3): 33.3 µM (inactive) | GI50 (MDA-N): 39.2 µM (inactive) | GI50 (UACC-257): 40.7 µM (inactive) | GI50 (SW-620): 40.6 µM (inactive) | GI50 (MDA-MB-231): 81.3 µM (inactive) | GI50 (DU-145): 34 µM (inactive) | GI50 (MCF7): 32.4 µM (inactive) | GI50 (COLO 205): 16.9 µM (inactive) | GI50 (U-251): 52.7 µM (inactive) | GI50 (SNB-19): > 100 µM (inactive) | GI50 (SNB-75): 38.8 µM (inactive) | GI50 (NCI-H522): 37 µM (inactive) | GI50 (NCI-H23): 47.1 µM (inactive) | GI50 (SF-295): 30.5 µM (inactive) | GI50 (RXF 393): 20.9 µM (inactive) | GI50 (M14): 40.7 µM (inactive) | GI50 (HOP-92): 33.7 µM (inactive) | GI50 (ACHN): 36.4 µM (inactive) | GI50 (786-0): 31.1 µM (inactive) | GI50 (OVCAR-4): 22.8 µM (inactive) | GI50 (MDA-MB-435): 26.7 µM (inactive) | GI50 (HCT-15): 40.6 µM | GI50 (OVCAR-3): 36.8 µM (inactive) | GI50 (HCT-116): 28.5 µM (inactive) | GI50 (SK-OV-3): 24.8 µM (inactive) | GI50 (HOP-62): 72.6 µM (inactive) | GI50 (NCI-H460): 24.7 µM (inactive) | GI50 (TK-10): 62.2 µM (inactive) | GI50 (Hs-578T): 17.5 µM (inactive) | GI50 (UO-31): 33.3 µM (inactive) | GI50 (BT-549): 50.2 µM (inactive) | GI50 (SK-MEL-28): 50.1 µM (inactive) | GI50 (RPMI-8226): 45.4 µM (inactive) | GI50 (IGROV-1): 68.2 µM (inactive) | GI50 (SN12C): 53.7 µM (inactive) | GI50 (SK-MEL-2): 24.5 µM (inactive) | GI50 (MOLT-4): 32.3 µM (inactive) | GI50 (KM12): 31.8 µM (inactive) | GI50 (CAKI-1): 19.2 µM (inactive) | GI50 (Malme-3M): 23 µM (inactive) | GI50 (HL-60): 32.1 µM (inactive) | GI50 (T47D): 39.6 µM (inactive) | GI50 (NCI/ADR-RES): 35.1 µM (inactive) | GI50 (NCI-H226): 37.1 µM (inactive) | GI50 (LOX IMVI): 28.8 µM (inactive) | GI50 (UACC-62): 19.7 µM (inactive) | GI50 (SF-268): 51.8 µM (inactive) | GI50 (A549): 30.1 µM (inactive) | GI50 (CCRF-CEM): 26.9 µM (inactive) | GI50 (HT-29): 21.2 µM (inactive) | GI50 (EKVX): 20.9 µM (inactive) | GI50 (OVCAR-8): 57 µM (inactive)

O=C1CCC[C@]2(CCC[C@@H](O)C2)N1
GI50 (HCC 2998): > 100 µM (inactive) | GI50 (SF-539): > 100 µM (inactive) | GI50 (K562): > 100 µM (inactive) | GI50 (SK-MEL-5): > 100 µM (inactive) | GI50 (PC-3): > 100 µM (inactive) | GI50 (MDA-N): > 100 µM (inactive) | GI50 (UACC-257): > 100 µM (inactive) | GI50 (MDA-MB-231): > 100 µM (inactive) | GI50 (OVCAR-5): > 100 µM (inactive) | GI50 (DU-145): > 100 µM (inactive) | GI50 (MCF7): > 100 µM (inactive) | GI50 (COLO 205): > 100 µM (inactive) | GI50 (SNB-19): > 100 µM (inactive) | GI50 (SNB-75): > 100 µM (inactive) | GI50 (NCI-H522): > 100 µM (inactive) | GI50 (SF-295): > 100 µM (inactive) | GI50 (RXF 393): > 100 µM (inactive) | GI50 (M14): > 100 µM (inactive) | GI50 (ACHN): > 100 µM (inactive) | GI50 (786-0): > 100 µM (inactive) | GI50 (OVCAR-4): > 100 µM (inactive) | GI50 (HCT-15): > 100 µM | GI50 (OVCAR-3): > 100 µM (inactive) | GI50 (HCT-116): > 100 µM (inactive) | GI50 (SK-OV-3): > 100 µM (inactive) | GI50 (HOP-62): > 100 µM (inactive) | GI50 (NCI-H460): > 100 µM (inactive) | GI50 (TK-10): > 100 µM (inactive) | GI50 (Hs-578T): > 100 µM (inactive) | GI50 (BT-549): > 100 µM (inactive) | GI50 (IGROV-1): > 100 µM (inactive) | GI50 (SN12C): > 100 µM (inactive) | GI50 (SK-MEL-2): > 100 µM (inactive) | GI50 (MOLT-4): > 10 µM (inactive) | GI50 (KM12): > 100 µM (inactive) | GI50 (CAKI-1): > 100 µM (inactive) | GI50 (Malme-3M): > 100 µM (inactive) | GI50 (HL-60): > 100 µM (inactive) | GI50 (T47D): > 100 µM (inactive) | GI50 (NCI/ADR-RES): > 100 µM (inactive) | GI50 (LOX IMVI): > 100 µM (inactive) | GI50 (SF-268): > 100 µM (inactive) | GI50 (A549): > 100 µM (inactive) | GI50 (CCRF-CEM): > 100 µM (inactive) | GI50 (HT-29): > 100 µM (inactive) | GI50 (EKVX): > 100 µM (inactive) | GI50 (OVCAR-8): > 100 µM (inactive)
